{"source": "patent US9545388B2", "about": "“Benzenetricarboxylic acid and methods of use” (GEORGETOWN UNIVERSITY, priority 2012, dated 2017)", "key": {"[1]": {"test": "cell death by trypan blue exclusion in BTA-treated cells with or without rescue agents", "assay_type": "cell-based"}, "[2]": {"tested_on": "LC3", "test": "immuno-fluorescence and cellular sub-fractionation for LC3 recruitment to mitochondria", "assay_type": "cell-based", "protocol": "ATP (Panel B) and Oxygen consumption levels (Panel C) in cells cultured in 5 mM glucose and mock treated (DMSO, Control) or treated with BTA, or in cells expressing CIC or CIC-DN, 16 hours after treatments. […] The percentages of cells distributed in the G1-, S-, or G2-phases of the cells cycle are shown. Apoptotic cells are identified as the Sub-G1 (SG) population. […] Cells were stained with anti-Flag (green, panels 1 and 4) and anti-LC3 (red, panels 2 and 5) antibodies, and counterstained with DAPI. Merged images are shown in panels 3 and 6. […]\nCells were grown in Dulbecco's modified Eagle's medium (DMEM, 5 mM glucose, with glutamine and pyruvate from Invitrogen; Carlsbad, Calif.) and supplemented with 10% fetal calf serum (FCS). […] The anti-CIC antibody was obtained from Santa Cruz Biotech (Santa Cruz, Calif.), employed at 1:1000 dilution in immuno-blot and at 1:100 in immuno-fluorescence; the anti-mHsp70 and anti-mitofilin antibody were from Novus Biological (Littleton, Colo.) employed at 1:500 in immuno-fluorescence and 1:1000 in immuno-blot; for the LC3 immuno-blot, a mixture of two antibodies was used each at 1:1000 dilution (Novus Biological). […]"}, "[3]": {"tested_on": "lung cancer H1299 cell lines", "test": "tumor xenograft, lung cancer H1299 cells in nude mice", "assay_type": "in vivo, female athymic balbc/nude mice", "conditions": "BTA 26 mg/kg intra-peritoneal three times a week", "procedure": "(§2) To produce tumor xenografts, 5×10^6 cells were resuspended in PBS and injected subcutaneously in the flanks of female nude mice. […] Mice were pre-treated twice prior to the inoculation of tumor cell lines. Once detectable tumors started to form, their size was measured with a caliper in three dimensions. Serial measurements were made at two-three day intervals after the identification of the initial cellular mass to determine growth curves in vivo. Tumor volume was calculated using the formula for a prolate spheroid: volume=(4/3)×a^2b, where a is the width and b is the length. All animals were sacrificed when the tumors exceeded 1.5 cm. At the completion of experiments, tumors were excised, weighed and statistical significance of differences in tumor volume were made using two factor repeated measures analysis of variance followed by Fisher's last significant difference test for multiple comparisons."}, "[4]": {"tested_on": "glucose-derived fatty acid (FA) synthesis", "test": "metabolism of D-[1,6-13C2] glucose into fatty acids via NMR mass spectrometry", "assay_type": "cell-based", "description": "The molecular mechanisms by which CIC affects proliferation were examined. The function of CIC has been primarily linked to glucose-derived fatty acid (FA) synthesis, because of its role in citrate export. Therefore, the metabolism of D-[1,6-^13C2] glucose via NMR mass spectrometry was studied. […] Thus, depletion of lipids unlikely represents the only mechanism by which CIC inhibition affects tumor growth."}, "[5]": {"tested_on": "mitochondrial mass", "test": "mitochondrial content by mitofilin and Nonyl-Acridine Orange (NOA)", "assay_type": "cell-based", "protocol": "(§1) The concentration of citrate, lactate, isocitrate, and malate were assessed using specific kits from BioVision (Milpitas, Calif.). Cellular ATP levels were determined via the ATP kit (Promega; Fitchburg, Wis.), while oxygen consumption rates were measured using the BD oxygen biosensor systems (OBS) from BD Bioscience (Franklin Lakes, N.J.). Triplicate samples of 50,000 cells were seeded onto 96-well OBS plates. The number of cells was determined at each time point by sampling cells seeded into side-by-side plates. Fluorescence was measured from the bottom of the well every 24 h and measurements were normalized by subtracting the reading from the same well prior to the addition of the cells (blank). For measurement of reactive oxygen species (ROS), H2DCFDA was used (Invitrogen). Mitochondrial mass was assessed by using mitotracker green (Invitrogen), as per manufacturer instructions, or nonyl acridine orange at a final concentration of 300 nM, followed by analysis by flow cytometry. Mitochondrial membrane potential (MMP) was studied with the JC1 assay kit from Cayman Chemical (Ann Arbor, Mich.)."}, "[6]": {"tested_on": "H1299 cells", "test": "cell cycle analysis of H1299 cells under glucose restriction", "assay_type": "cell-based, human", "conditions": "glucose restriction (2 mM Glucose), 1 mM BTA", "protocol": "ATP (Panel B) and Oxygen consumption levels (Panel C) in cells cultured in 5 mM glucose and mock treated (DMSO, Control) or treated with BTA, or in cells expressing CIC or CIC-DN, 16 hours after treatments. […] The percentages of cells distributed in the G1-, S-, or G2-phases of the cells cycle are shown. Apoptotic cells are identified as the Sub-G1 (SG) population. […] Cells were stained with anti-Flag (green, panels 1 and 4) and anti-LC3 (red, panels 2 and 5) antibodies, and counterstained with DAPI. Merged images are shown in panels 3 and 6. The results of these immunofluorescence experiments were confirmed with cellular sub-fractionation experiments shown in Panel F. Cytoplasmic (c) and mitochondrial (m) fractions derived from naïve 293T cells (lanes 1,2) or 293T cells expressing CIC (lanes 3,4) or CIC-DN (lanes 5,6) or treated with BTA (lanes 7,8), were probed with anti-CIC, anti-LC3, or anti-mitofilin antibodies, as indicated. The two arrows in the LC3 blot indicate cytosolic (-I) or activated (-II) LC3 forms. […] All images shown were derived from the same autoradiogram at identical times of exposures, but lanes in between samples of interest were eliminated. […] The anti-mitofilin, anti-p62 (employed as a general autophagic marker), anti-CIC, or anti LC3 specific immuno-blots are shown."}, "[7]": {"tested_on": "MDA-MB-231 cells", "test": "dose dependent growth inhibition of BTA in MDA-MB-231 cells", "assay_type": "cell-based, human", "conditions": "MBA-MD-231 cells, BTA dose response (FIG. 2B)", "protocol": "Cells were grown in Dulbecco's modified Eagle's medium (DMEM, 5 mM glucose, with glutamine and pyruvate from Invitrogen; Carlsbad, Calif.) and supplemented with 10% fetal calf serum (FCS). Early passage cell lines or frozen pellets were used for screening of CIC expression levels (FIG. 1A). All the reagents for the study of complex I activity were purchased from Sigma-Aldrich (St. Louis, Mo.). The CIC specific shRNA vectors were purchased from Origene Technologies (Rockville, Md.). The vectors expressing human CIC untagged or Flag-Myc epitope tagged were also from Origene. The anti-CIC antibody was obtained from Santa Cruz Biotech (Santa Cruz, Calif.), employed at 1:1000 dilution in immuno-blot and at 1:100 in immuno-fluorescence; the anti-mHsp70 and anti-mitofilin antibody were from Novus Biological (Littleton, Colo.) employed at 1:500 in immuno-fluorescence and 1:1000 in immuno-blot; for the LC3 immuno-blot, a mixture of two antibodies was used each at 1:1000 dilution (Novus Biological). The LAMP-1 antibody was from Abcam (Cambridge, UK). The sequences of primers used were: the human cytochome c oxidase: forward: 5′-[…]-3′ (SEQ. ID NO: 1); Reverse:5′ […]-3′ (SEQ. ID NO: 2). The zebrafish NADH-dehydrogenase: forward: 5′-[…]-3′ (SEQ. ID NO: 3); reverse:5′ […]-3′ (SEQ. ID NO: 4). The zebrafish p53: forward: 5′-ACATGA […]-3′ (SEQ. ID NO: 5); Reverse: 5′ […] 3′ (SEQ. ID NO: 6)."}, "[8]": {"tested_on": "H1299 cells", "test": "cell viability by trypan blue exclusion in H1299 cells", "assay_type": "cell-based, human", "conditions": "1 mM BTA, trypan blue exclusion (FIG. 2D)", "protocol": "Negative values are due to subtraction of background rates. […] Cell viability was assessed with trypan blue exclusion.\nCells were grown in Dulbecco's modified Eagle's medium (DMEM, 5 mM glucose, with glutamine and pyruvate from Invitrogen; Carlsbad, Calif.) and supplemented with 10% fetal calf serum (FCS). Early passage cell lines or frozen pellets were used for screening of CIC expression levels (FIG. 1A). All the reagents for the study of complex I activity were purchased from Sigma-Aldrich (St. Louis, Mo.). The CIC specific shRNA vectors were purchased from Origene Technologies (Rockville, Md.). The vectors expressing human CIC untagged or Flag-Myc epitope tagged were also from Origene. The anti-CIC antibody was obtained from Santa Cruz Biotech (Santa Cruz, Calif.), employed at 1:1000 dilution in immuno-blot and at 1:100 in immuno-fluorescence; the anti-mHsp70 and anti-mitofilin antibody were from Novus Biological (Littleton, Colo.) employed at 1:500 in immuno-fluorescence and 1:1000 in immuno-blot; for the LC3 immuno-blot, a mixture of two antibodies was used each at 1:1000 dilution (Novus Biological). The LAMP-1 antibody was from Abcam (Cambridge, UK). The sequences of primers used were: the human cytochome c oxidase: forward: 5′-[…]-3′ (SEQ. ID NO: 1); Reverse:5′ […]-3′ (SEQ. ID NO: 2). […]"}, "[9]": {"tested_on": "bladder cancer cells derived from T24 cells", "test": "tumor xenograft, bladder cancer cells derived from T24 in nude mice", "assay_type": "in vivo, female athymic balbc/nude mice", "conditions": "BTA 26 mg/kg intra-peritoneal three times a week", "procedure": "as §2"}, "[10]": {"tested_on": "lactate", "test": "lactate levels in treated cells", "assay_type": "cell-based", "protocol": "as §1"}, "[11]": {"biological_target": "T1, CIC (Homo sapiens, UniProt P53007)", "T1 construct": "citrate levels in cells expressing endogenous CIC (nM/well) were assessed in 293T cell lines harboring the pcDNA/TO vector; endogenous in cells; host or cells: 293T cells harbouring the empty pcDNA/TO vector", "T1 sequence (P53007 14-311)": "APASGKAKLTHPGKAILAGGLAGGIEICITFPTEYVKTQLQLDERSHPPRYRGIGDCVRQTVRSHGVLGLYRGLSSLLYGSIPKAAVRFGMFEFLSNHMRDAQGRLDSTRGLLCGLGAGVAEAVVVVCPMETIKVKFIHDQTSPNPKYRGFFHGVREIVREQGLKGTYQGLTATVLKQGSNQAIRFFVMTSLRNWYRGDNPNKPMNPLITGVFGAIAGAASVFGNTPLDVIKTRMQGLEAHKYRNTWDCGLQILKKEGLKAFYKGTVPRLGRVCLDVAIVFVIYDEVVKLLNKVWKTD", "conditions": "in vivo; cited from earlier work"}, "[12]": {"tested_on": "breast cancer MDA-MB-231 cells", "test": "tumor xenograft, breast cancer MDA-MB-231 cells in nude mice", "assay_type": "in vivo, female athymic balbc/nude mice", "conditions": "MDA-MB-231 xenograft, BTA 26 mg/kg intra-peritoneal three times a week, single agent", "procedure": "as §2"}, "[13]": {"protocol": "To produce tumor xenografts, 5×10^6 cells were resuspended in PBS and injected subcutaneously in the flanks of female nude mice. For drug treatments, mice were randomized to receive either PBS or a PBS solution of BTA at a concentration 26 mg/kg which was administered via intra-peritoneal route three times a week. Mice were pre-treated twice prior to the inoculation of tumor cell lines. Once detectable tumors started to form, their size was measured with a caliper in three dimensions. Serial measurements were made at two-three day intervals after the identification of the initial cellular mass to determine growth curves in vivo. Tumor volume was calculated using the formula for a prolate spheroid: volume=(4/3)×a^2b, where a is the width and b is the length. All animals were sacrificed when the tumors exceeded 1.5 cm. At the completion of experiments, tumors were excised, weighed and statistical significance of differences in tumor volume were made using two factor repeated measures analysis of variance followed by Fisher's last significant difference test for multiple comparisons. The trial administration of BTA to explore its toxic effects, was conducted on 8 non immuno-compromised mice, randomized in two groups, and injected for five consecutive months. Animals were monitored once a week for the presence of signs of disease, particularly neurological disturbances or weight loss, and they were weighted periodically."}}}
{"compound": "CCCCCCCCCCCCCCCC(=O)O", "note": "[palmitic acid]", "values": [{"measurement": "rescue of proliferation of BTA-treated cells", "setting": "[1]; incubation of BTA-treated cells with palmitic acid", "value": "not sufficient to rescue proliferation"}]}
{"compound": "O=C(O)c1cccc(C(=O)O)c1C(=O)O", "note": "[BTA, 1,2,3-benzenetricarboxylic acid]", "values": [{"measurement": "LC3-II in the mitochondrial fraction", "setting": "[2]; 293T cells treated with BTA, sub-fractionation immuno-blot (FIG. 5F lane 8)", "value": "enrichment of LC3-II in the mitochondria"}, {"measurement": "recruitment of active-lipidated LC3 and lysosomes to the mitochondria", "setting": "[2]; cells treated with BTA", "value": "recruitment of the autophagic machinery"}, {"measurement": "anti-cancer activity (tumor volume)", "setting": "[3]", "value": "exhibited anti-cancer activity"}, {"measurement": "total FA levels", "setting": "[4]; 16 hours after BTA treatment", "value": "modestly reduced"}, {"measurement": "ability of cells to convert glucose into FA", "setting": "[4]; D-[1,6-13C2] glucose", "value": "severely reduced the ability of cells to convert glucose into FA"}, {"measurement": "total FA levels", "setting": "[4]; later time points after BTA treatment", "value": "increased"}, {"measurement": "mitochondrial quantity (mitofilin)", "setting": "[5]; time course following BTA treatment (FIG. 5G)", "value": "reduction of mitochondrial quantity as a function of time"}, {"measurement": "viability of treated cells", "setting": "[1]; cells treated with BTA", "value": "loss of viability"}, {"measurement": "apoptosis (Sub-G1 population)", "setting": "[6]", "value": "induction of apoptosis"}, {"measurement": "proliferation rates", "setting": "[7]", "value": "decreased proliferation rates in a dose-dependent manner"}, {"measurement": "cell growth / viability", "setting": "[8]", "value": "growth inhibition"}, {"measurement": "anti-cancer activity (tumor volume)", "setting": "[9]", "value": "exhibited anti-cancer activity"}, {"measurement": "levels of glucose-derived lactate", "setting": "[10]", "value": "enhanced the levels of glucose-derived lactate"}, {"measurement": "CIC-dependent transport of citrate", "setting": "[11]", "value": "suppresses CIC-dependent transport of citrate"}, {"measurement": "anti-cancer activity (tumor volume)", "setting": "[12]", "value": "exhibited anti-cancer activity"}, {"measurement": "evidence of illness or toxicity", "setting": "[13]; mouse, in vivo", "value": "no evidence of illness or toxicity"}, {"measurement": "evidence of toxicity", "setting": "[13]; mouse, in vivo", "value": "without showing any evidence of toxicity"}, {"measurement": "body weight", "setting": "[13]; non immuno-compromised mice, BTA twice a week for five consecutive months", "value": "small but statistically significant reduction of the body weight"}]}
{"compound": "CC(=O)N[C@@H](CS)C(=O)O", "note": "[NAC, N-acetyl-cysteine]", "values": [{"measurement": "prevention of loss of viability in cells treated with BTA", "setting": "[1]; 5 mM methyl-pyruvate or 2 mM NAC added to BTA-treated cells (FIG. 5A)", "value": "partially prevented loss of viability"}]}
{"compound": "Cn1cnc(N)c2ncnc1-2", "note": "[Compound 3MA, 3-Methyladenine, reference compound]", "values": [{"measurement": "mitochondrial amount (NOA) in BTA-treated cells", "setting": "[5]; 5 mM 3MA added to BTA-treated cells (FIG. 6A)", "value": "restored mitochondrial amount"}]}
